The record followed here is patent US20250099405A1, “COMPOSITIONS, METHODS, AND DEVELOPMENT OF ARID4B INHIBITORS” (University of Kentucky Research Foundation, priority 2022, published 2025).

In one experiment the test system is MCF7 Y537S. Kind of experiment: MTT proliferation assay, MCF7 Y537S. In kind it is cell-based. The conditions noted are these: data not shown. The protocol: (§1) To determine the EC50 of ARD150 and two of its derivatives in breast cancer, MCF7, ZR75-1 (wild-type ERα+), and MCF7 Y537S (constitutively activate ERα mutant) and their ARID4B KO counterparts were seeded in 24 well plate and treated with the various concentrations (0, 0.1, 1, 5, 10, 20, 40, 60, and 100 μM) of ARD150 and RWR-18 for 14 days. […] Knockout of ARID4B renders cells less sensitive to these compounds.

The next experiment relates to MCF7. Nature of the experiment: MTT proliferation assay, MCF7. It counts as cell-based. The conditions noted are these: Homo sapiens, MCF7, 336 h, 14 days. The procedure: as §1
The subject of the next experiment is T47D. Kind of experiment: MTT proliferation assay, T47D. In kind it is cell-based. The conditions noted are these: data not shown. A general note: Tetrazolium assays rely on reduction of a dye to a coloured formazan, in cell work by metabolically active cells.
Another experiment deals with T1, ARID4B chromodomain (Homo sapiens, UniProt Q4LE39).
T1 sequence (Q4LE39 572-624 limits assumed): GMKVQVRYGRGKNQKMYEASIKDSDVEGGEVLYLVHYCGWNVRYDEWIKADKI
Kind of experiment: Isothermal titration calorimetry (ITC). It counts as binding. The source says:
It was then undertaken to identify compounds that inhibit ARID4B, focusing on the chromodomain therein. First, the structure of ARID4B was created using a homology model based on an optimized computational platform that combines the iterative threading assembly refinement (TASSER) and SWISSMODEL (FIG. 14A-B). Protein structure prioritization was based on protein-model accuracy, quantitatively measured C-score, TM-score and RMSD value. Next, in silico screening of 160,000 drug-like diverse small molecules from MOE's chemical repository combined with biophysical characterization including isothermal calorimetry (ITC, FIG. 16) and circular dichroism (data not shown) of identified compound ARD150 with recombinant ARID4B chromodomain informed chemical synthesis of diverse scaffolds.
Isothermal titration calorimetry (ITC) was used to confirm the binding of ARD150 and its derivative RWR18 (derived from ARD150 with slight structural modifications) to ARID4B chromodomain and to determine the Kd, reaction stoichiometry (n), enthalpy (ΔH) and entropy (ΔS). […] This highlights to power of rational design to tune the target engagement and affinity of ligands.
On the technique in general: ITC needs no label: the signal is the heat of the interaction.

Another experiment relates to MCF10A. Kind of experiment: Proliferation assay, non-tumorigenic MCF10A. It counts as cell-based. The conditions noted are these: MCF10A expresses lower ARID4B.
For another experiment, the target named is T2, HA-ARID4B (Homo sapiens, UniProt Q4LE39).
T2 construct: transfected with vector, full-length ARID4B or ARID4B deletion mutants; expressed in transfected cells; host or cells: HEK-293T
T2 sequence (Q4LE39 1-1312): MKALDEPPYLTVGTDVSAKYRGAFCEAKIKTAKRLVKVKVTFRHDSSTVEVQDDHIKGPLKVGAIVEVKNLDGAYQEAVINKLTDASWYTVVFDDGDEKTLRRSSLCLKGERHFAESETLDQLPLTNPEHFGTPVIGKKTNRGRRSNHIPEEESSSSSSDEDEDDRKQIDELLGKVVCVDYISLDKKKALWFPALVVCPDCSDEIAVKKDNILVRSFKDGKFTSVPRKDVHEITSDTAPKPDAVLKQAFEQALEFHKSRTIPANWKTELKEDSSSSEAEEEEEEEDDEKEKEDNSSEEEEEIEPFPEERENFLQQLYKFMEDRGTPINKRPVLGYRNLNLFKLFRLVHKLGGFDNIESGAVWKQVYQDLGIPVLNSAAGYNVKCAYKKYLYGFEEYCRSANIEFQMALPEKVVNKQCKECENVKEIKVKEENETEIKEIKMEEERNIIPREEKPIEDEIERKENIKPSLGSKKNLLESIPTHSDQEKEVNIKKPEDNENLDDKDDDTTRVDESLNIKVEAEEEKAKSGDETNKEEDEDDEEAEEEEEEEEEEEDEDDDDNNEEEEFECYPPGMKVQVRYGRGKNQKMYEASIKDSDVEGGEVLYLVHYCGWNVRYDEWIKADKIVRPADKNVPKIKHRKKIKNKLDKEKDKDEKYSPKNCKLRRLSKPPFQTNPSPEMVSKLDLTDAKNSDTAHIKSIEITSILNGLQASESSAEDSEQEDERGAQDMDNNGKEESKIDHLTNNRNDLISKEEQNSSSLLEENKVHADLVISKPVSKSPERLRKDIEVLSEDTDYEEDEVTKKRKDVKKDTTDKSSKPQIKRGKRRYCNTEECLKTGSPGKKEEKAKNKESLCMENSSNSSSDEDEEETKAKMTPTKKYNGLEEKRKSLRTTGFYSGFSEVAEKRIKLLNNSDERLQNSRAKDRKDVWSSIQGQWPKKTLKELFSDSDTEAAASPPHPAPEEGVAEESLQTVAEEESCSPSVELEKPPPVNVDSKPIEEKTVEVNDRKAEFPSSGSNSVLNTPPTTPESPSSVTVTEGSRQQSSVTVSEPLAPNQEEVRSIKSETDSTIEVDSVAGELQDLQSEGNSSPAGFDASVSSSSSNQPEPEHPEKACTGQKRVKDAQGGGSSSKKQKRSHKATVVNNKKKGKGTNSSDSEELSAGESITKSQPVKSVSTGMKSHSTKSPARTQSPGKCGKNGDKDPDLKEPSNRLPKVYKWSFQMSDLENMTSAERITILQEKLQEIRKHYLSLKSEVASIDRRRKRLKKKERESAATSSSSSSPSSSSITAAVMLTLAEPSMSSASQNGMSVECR
Kind of experiment: CETSA in HEK-293T cells expressing HA-ARID4B. In kind it is cell-based. The conditions noted are these: 10 μM, 2 h. The protocol:
(B-C) show cells expressing HA-ARID4B (C) or HA-ARID4BIC (D) treated or not with ARD150 (10 μM) for 2 h were used for CESTA. […] (D-E) show cells expressing HA-ARID4B (D) or Flag-ARID4A (E) treated or not with RWR-18 (10 μM) for 2 h were used for CESTA. […] Data are means±SEM from three experiments. *P<0.05, **P<0.01, ns, not significant.
Using CETSA (cellular thermal shift assay) to examine whether ARD150 or RWR-18 binds to ARID4B, MCF7 cells treated or not with ARD150 or RWR-18 for 2 h were collected, followed by heating at 46, 49, 52, 55, and 58° C. to denature and precipitate ARID4B protein, cell lysis, removal of cell debris and aggregates by centrifugation, and finally detection of remaining thermostable ARID4B protein by western blot. The ARID4B aggregation temperatures without ARD150 were determined to be 49-52° C., but shifted to 52-55° C. after treatment with ARD150 and even more so with RWR-18 (FIG. 15A-D). To determine whether ARD150 and RWR-18 targets the chromodomain of ARID4B, CESTA was performed using chromodomain deletion mutant (ARID4BAC). HEK-293T cells expressing HA-ARID4B or HA-ARID4BAC were treated or not with ARD150 (10 μM) for 2 h and processed for CESTA.

For orientation: EC50 means the concentration at which the effect is half-maximal. Higher therefore signals a need for much substance. The Kd is the constant that tells how readily two partners part at equilibrium. Read a high Kd as a looser complex.

Turning to `O=C(COc1ccc(OCc2ccccc2)cc1)NCCCN1CCOCC1` [RWR-18], the “EC50 for MCF7 Y537S” value with MCF7 Y537S is on record as “comparable to that of MCF7”. The midpoint of the response in the experiment on MCF7, the EC50, lay at 7.9 µM. Besides, the “EC50 for T47D” value in the experiment with T47D is “comparable to that of MCF7”. Besides, at ARID4B chromodomain, the Kd turned out to be 1 µM. Further, the “effect on non-tumorigenic MCF10A” value in the experiment on MCF10A is recorded as “insensitive”. Besides, on HA-ARID4B, the “shift of aggregation temperatures of HA-ARID4B” value is on record as “resulted in a shift of aggregation temperatures”.
As to `COc1ccc(C(=O)NCCCN2CCOCC2)cc1OC` [ARD150], the “EC50 for MCF7 Y537S” value in the experiment on MCF7 Y537S was “comparable to that of MCF7”. Moreover, in the experiment with MCF7, it took 13.8 µM to reach a half-maximal effect (EC50). Moreover, the “EC50 for T47D” value in the experiment with T47D was “comparable to that of MCF7”. The affinity on ARID4B chromodomain, expressed as Kd, was 3.5 µM. Further, the “effect on non-tumorigenic MCF10A” value in the experiment with MCF10A is “insensitive”. Also, on HA-ARID4B, the “shift of aggregation temperatures of HA-ARID4B” value was “resulted in a shift of aggregation temperatures”.
